Measurements reported in US12433953B2, “Compositions and methods related to tumor activated antibodies targeting EGFR and effector cell antigens” (Janux Therapeutics, Inc., priority 2021, dated 2025).
Like-named read-outs stand apart in the source and are kept apart here.

Assays:
[1] = system: EGFR Fab binding to the EGFR antigen; assay: ELISA competitive inhibition of EGFR Fab binding to EGFR antigen; conditions: for potency as peptide mask (in words): binding and inhibition data relative to peptide-8
[2] = target: EGFR Fab; assay: ELISA binding of peptides to EGFR Fab; conditions: read-out: EC50 for peptide binding to αEGFR Fab
[3] = Table 20, peptide-8 alanine scanning mutants, read-out: IC50
[4] = Table 21, peptide-8 alanine scanning mutants, read-out: IC50
[5] = read-out: IC50 for peptide inhibition of αEGFR Fab binding to EGFR antigen, Table 18
[6] = read-out: IC50 for peptide inhibition of αEGFR Fab binding to EGFR antigen, Table 27, peptide-8 optimization
[7] = Table 25, peptide-8 optimization

SMILES: CC[C@H](C)[C@@H]1NC(=O)[C@@H]2CCCN2C(=O)[C@H](CCCCN)NC(=O)[C@H](C)NC(=O)[C@H](C(C)C)NC(=O)[C@H](CC(=O)O)NC(=O)[C@H](C)NC(=O)[C@H](Cc2c[nH]cn2)NC(=O)[C@H](CO)NC(=O)[C@H](CCCNC(=N)N)NC(=O)[C@@H](NC(=O)[C@@H]2CCCN2)CSSC[C@@H](C(=O)N[C@H](C(=O)O)C(C)C)NC1=O [Peptide-21]
- Fold shift in IC50 relative to Peptide-8 (IC50 Ala mutant/IC50 Peptide-8) ([1]; Table 20): 0.5
- IC50 [1, 3]: 1950 nM

SMILES: CC[C@H](C)[C@@H]1NC(=O)[C@H](Cc2c[nH]cn2)NC(=O)[C@H](CO)NC(=O)[C@H](CCCNC(=N)N)NC(=O)[C@@H](NC(=O)[C@@H]2CCCN2)CSSC[C@@H](C(=O)N[C@H](C(=O)O)C(C)C)NC(=O)[C@H]([C@@H](C)CC)NC(=O)[C@@H]2CCCN2C(=O)[C@H](C)NC(=O)[C@H](C)NC(=O)[C@H](C(C)C)NC(=O)[C@H](CC(=O)O)NC1=O [Peptide-24]
- IC50 [1, 4]: > 100000 nM

SMILES: CSCC[C@@H]1NC(=O)[C@H](Cc2c[nH]cn2)NC(=O)[C@H](CO)NC(=O)[C@@H](NC(=O)[C@@H](N)CCC(=O)O)CSSC[C@@H](C(=O)N[C@@H](CO)C(=O)O)NC(=O)[C@H](CC(C)C)NC(=O)[C@@H]2CCCN2C(=O)[C@H](Cc2c[nH]c3ccccc23)NC(=O)[C@H](CCCNC(=N)N)NC(=O)[C@H]([C@@H](C)O)NC(=O)CNC(=O)[C@H](CCC(=O)O)NC1=O [Peptide-16]
- IC50 [1, 5]: > 300 nM
- EC50 ([2]; Table 16): 34 nM

SMILES: CC[C@H](C)[C@@H]1NC(=O)[C@@H]2CCCN2C(=O)[C@H](CCCCN)NC(=O)[C@H](C)NC(=O)[C@H]([C@@H](C)O)NC(=O)[C@H](CC(=O)O)NC(=O)[C@H](Cc2ccccc2)NC(=O)[C@H](Cc2c[nH]cn2)NC(=O)[C@H](CO)NC(=O)[C@H]([C@@H](C)O)NC(=O)[C@@H](NC(=O)[C@@H]2CCCN2)CSSC[C@@H](C(=O)N[C@@H](C)C(=O)O)NC1=O [Peptide-39]
- IC50 [1, 6]: 2790 nM
- EC50 [2, 7]: 206 nM

SMILES: CC[C@H](C)[C@@H]1NC(=O)[C@H](Cc2c[nH]cn2)NC(=O)[C@H](C)NC(=O)[C@H](CCCNC(=N)N)NC(=O)[C@@H](NC(=O)[C@@H]2CCCN2)CSSC[C@@H](C(=O)N[C@H](C(=O)O)C(C)C)NC(=O)[C@H]([C@@H](C)CC)NC(=O)[C@@H]2CCCN2C(=O)[C@H](CCCCN)NC(=O)[C@H](C)NC(=O)[C@H](C(C)C)NC(=O)[C@H](CC(=O)O)NC1=O [Peptide-19]
- Fold shift in IC50 relative to Peptide-8 (IC50 Ala mutant/IC50 Peptide-8) ([1]; Table 20): 24
- IC50 [1, 3]: 93000 nM

SMILES: CSCC[C@@H]1NC(=O)[C@H](C(C)C)NC(=O)[C@H]([C@@H](C)O)NC(=O)[C@@H](NC(=O)[C@H](C)N)CSSC[C@@H](C(=O)N[C@H](C(=O)O)C(C)C)NC(=O)[C@H](CCCNC(=N)N)NC(=O)[C@H](C(C)C)NC(=O)[C@H](CCC(=O)O)NC(=O)[C@H](CCC(N)=O)NC(=O)[C@H](CCCNC(=N)N)NC(=O)[C@H](C)NC(=O)CNC1=O [Peptide-13]
- IC50 [1, 5]: > 300 nM
- EC50 ([2]; Table 16): > 1000 nM

SMILES: CC[C@H](C)[C@@H]1NC(=O)[C@H](Cc2c[nH]cn2)NC(=O)[C@H](CO)NC(=O)[C@H](CCCNC(=N)N)NC(=O)[C@@H](NC(=O)[C@@H]2CCCN2)CSSC[C@@H](C(=O)N[C@H](C(=O)O)C(C)C)NC(=O)[C@H]([C@@H](C)CC)NC(=O)[C@@H]2CCCN2C(=O)[C@H](CCCCN)NC(=O)[C@H](C)NC(=O)[C@H](C(C)C)NC(=O)[C@H](C)NC1=O [Peptide-22]
- IC50 [1, 3]: > 100000 nM

SMILES: CC[C@H](C)[C@@H]1NC(=O)[C@H](C)NC(=O)[C@H](CO)NC(=O)[C@H](CCCNC(=N)N)NC(=O)[C@@H](NC(=O)[C@@H]2CCCN2)CSSC[C@@H](C(=O)N[C@H](C(=O)O)C(C)C)NC(=O)[C@H]([C@@H](C)CC)NC(=O)[C@@H]2CCCN2C(=O)[C@H](CCCCN)NC(=O)[C@H](C)NC(=O)[C@H](C(C)C)NC(=O)[C@H](CC(=O)O)NC1=O [Peptide-20]
- Fold shift in IC50 relative to Peptide-8 (IC50 Ala mutant/IC50 Peptide-8) ([1]; Table 20): 2.8
- IC50 [1, 3]: 11000 nM

SMILES: CC[C@H](C)[C@@H]1NC(=O)[C@H](Cc2c[nH]cn2)NC(=O)[C@H](CO)NC(=O)[C@H](CCCNC(=N)N)NC(=O)[C@@H](NC(=O)[C@H](C)N)CSSC[C@@H](C(=O)N[C@H](C(=O)O)C(C)C)NC(=O)[C@H]([C@@H](C)CC)NC(=O)[C@@H]2CCCN2C(=O)[C@H](CCCCN)NC(=O)[C@H](C)NC(=O)[C@H](C(C)C)NC(=O)[C@H](CC(=O)O)NC1=O [Peptide-17]
- Fold shift in IC50 relative to Peptide-8 (IC50 Ala mutant/IC50 Peptide-8) ([1]; Table 20): 4.1
- IC50 [1, 3]: 16000 nM

SMILES: CC[C@H](C)[C@@H]1NC(=O)[C@@H]2CCCN2C(=O)[C@H](CCCCN)NC(=O)[C@H](C)NC(=O)[C@@H]2CCCN2C(=O)[C@H](CC(=O)O)NC(=O)[C@H](Cc2ccccc2)NC(=O)[C@H](Cc2c[nH]cn2)NC(=O)[C@H](Cc2ccccc2)NC(=O)[C@H](CC(C)C)NC(=O)[C@@H](NC(=O)[C@@H]2CCCN2)CSSC[C@@H](C(=O)N[C@@H](CO)C(=O)O)NC1=O [Peptide-46, PCLFHFDPAKPICS]
- potency as peptide mask (in words) [1]: more potent peptide masks
- IC50 [1, 6]: 300 nM
- EC50 [2, 7]: 4.9 nM

SMILES: CC[C@H](C)[C@@H]1NC(=O)[C@@H]2CCCN2C(=O)[C@H](CCCCN)NC(=O)[C@H](C)NC(=O)[C@@H]2CCCN2C(=O)[C@H](CC(=O)O)NC(=O)[C@H](CC(N)=O)NC(=O)[C@H](Cc2c[nH]cn2)NC(=O)[C@H](Cc2ccc(O)cc2)NC(=O)[C@H](C)NC(=O)[C@@H](NC(=O)[C@@H]2CCCN2)CSSC[C@@H](C(=O)N[C@@H](CO)C(=O)O)NC1=O [Peptide-45, PCAYHNDPAKPICS]
- potency as peptide mask (in words) [1]: more potent peptide masks
- IC50 [1, 6]: 543 nM
- EC50 [2, 7]: 10.3 nM

SMILES: CC[C@H](C)[C@@H]1NC(=O)[C@H](C)NC(=O)[C@H](CCCCN)NC(=O)[C@H](C)NC(=O)[C@H](C(C)C)NC(=O)[C@H](CC(=O)O)NC(=O)[C@H]([C@@H](C)CC)NC(=O)[C@H](Cc2c[nH]cn2)NC(=O)[C@H](CO)NC(=O)[C@H](CCCNC(=N)N)NC(=O)[C@@H](NC(=O)[C@@H]2CCCN2)CSSC[C@@H](C(=O)N[C@H](C(=O)O)C(C)C)NC1=O [Peptide-25]
- IC50 [1, 4]: > 100000 nM

SMILES: CC[C@H](C)[C@@H]1NC(=O)[C@H](Cc2c[nH]cn2)NC(=O)[C@H](CO)NC(=O)[C@H](C)NC(=O)[C@@H](NC(=O)[C@@H]2CCCN2)CSSC[C@@H](C(=O)N[C@H](C(=O)O)C(C)C)NC(=O)[C@H]([C@@H](C)CC)NC(=O)[C@@H]2CCCN2C(=O)[C@H](CCCCN)NC(=O)[C@H](C)NC(=O)[C@H](C(C)C)NC(=O)[C@H](CC(=O)O)NC1=O [Peptide-18]
- Fold shift in IC50 relative to Peptide-8 (IC50 Ala mutant/IC50 Peptide-8) ([1]; Table 20): 1.4
- IC50 [1, 3]: 5600 nM

SMILES: CC(C)C[C@H](NC(=O)[C@@H]1CSSC[C@H](NC(=O)[C@@H](N)Cc2c[nH]c3ccccc23)C(=O)N[C@@H]([C@@H](C)O)C(=O)N[C@@H](C(C)C)C(=O)N[C@@H](Cc2c[nH]c3ccccc23)C(=O)NCC(=O)N[C@@H](CC(=O)O)C(=O)N[C@@H](CCCNC(=N)N)C(=O)N[C@@H](CCC(N)=O)C(=O)N[C@@H](CCC(=O)O)C(=O)N[C@@H](C(C)C)C(=O)N[C@@H](CCCNC(=N)N)C(=O)N1)C(=O)O [Peptide-7]
- IC50 ([1]; read-out: IC50 for peptide inhibition of αEGFR Fab binding to EGFR antigen, Table 17): > 300 nM
- EC50 ([2]; Table 15): > 1000 nM

SMILES: CC[C@H](C)[C@@H]1NC(=O)[C@@H]2CCCN2C(=O)[C@H](CCCCN)NC(=O)[C@H](C)NC(=O)[C@H](CC(C)C)NC(=O)[C@H](CC(=O)O)NC(=O)[C@H](Cc2ccc(O)cc2)NC(=O)[C@H](Cc2c[nH]cn2)NC(=O)[C@H](CO)NC(=O)[C@H](CC(N)=O)NC(=O)[C@@H](NC(=O)[C@@H]2CCCN2)CSSC[C@@H](C(=O)N[C@H](C(=O)O)[C@@H](C)O)NC1=O [Peptide-43]
- IC50 [1, 6]: 4230 nM
- EC50 [2, 7]: 186 nM

SMILES: CC[C@H](C)[C@@H]1NC(=O)[C@H](Cc2c[nH]cn2)NC(=O)[C@H](CO)NC(=O)[C@H](CCCNC(=N)N)NC(=O)[C@@H](NC(=O)[C@@H]2CCCN2)CSSC[C@@H](C(=O)N[C@H](C(=O)O)C(C)C)NC(=O)[C@H]([C@@H](C)CC)NC(=O)[C@@H]2CCCN2C(=O)[C@H](CCCCN)NC(=O)[C@H](C)NC(=O)[C@H](C)NC(=O)[C@H](CC(=O)O)NC1=O [Peptide-23]
- Fold shift in IC50 relative to Peptide-8 (IC50 Ala mutant/IC50 Peptide-8) ([1]; Table 21): 2.7
- IC50 [1, 4]: 3800 nM

SMILES: CC[C@H](C)[C@@H]1NC(=O)[C@H](Cc2c[nH]cn2)NC(=O)[C@H](CO)NC(=O)[C@H](CCCNC(=N)N)NC(=O)[C@@H](NC(=O)[C@@H]2CCCN2)CSSC[C@@H](C(=O)N[C@H](C(=O)O)C(C)C)NC(=O)[C@H](C)NC(=O)[C@@H]2CCCN2C(=O)[C@H](CCCCN)NC(=O)[C@H](C)NC(=O)[C@H](C(C)C)NC(=O)[C@H](CC(=O)O)NC1=O [Peptide-26]
- IC50 [1, 4]: > 100000 nM

SMILES: CC[C@H](C)[C@@H]1NC(=O)[C@H](Cc2c[nH]cn2)NC(=O)[C@H](CO)NC(=O)[C@H](CCCNC(=N)N)NC(=O)[C@@H](NC(=O)[C@@H]2CCCN2)CSSC[C@@H](C(=O)N[C@@H](C)C(=O)O)NC(=O)[C@H]([C@@H](C)CC)NC(=O)[C@@H]2CCCN2C(=O)[C@H](CCCCN)NC(=O)[C@H](C)NC(=O)[C@H](C(C)C)NC(=O)[C@H](CC(=O)O)NC1=O [Peptide-27]
- Fold shift in IC50 relative to Peptide-8 (IC50 Ala mutant/IC50 Peptide-8) ([1]; Table 21): 2.2
- IC50 [1, 4]: 3100 nM

SMILES: CC[C@H](C)[C@@H]1NC(=O)[C@H](CC(=O)O)NC(=O)[C@H](Cc2ccccc2)NC(=O)[C@H](Cc2c[nH]cn2)NC(=O)[C@H](CO)NC(=O)[C@H](CC(N)=O)NC(=O)[C@@H](NC(=O)[C@@H]2CCCN2)CSSC[C@@H](C(=O)N[C@@H](CC(C)C)C(=O)O)NC(=O)[C@H]([C@@H](C)CC)NC(=O)[C@@H]2CCCN2C(=O)[C@H](CCCCN)NC(=O)[C@H](C)NC1=O [Peptide-44]
- IC50 [1, 6]: 6570 nM
- EC50 [2, 7]: 341 nM

SMILES: CC[C@H](C)[C@@H]1NC(=O)[C@H](CC(C)C)NC(=O)[C@H](C)NC(=O)[C@@H]2CCCN2C(=O)[C@@H](NC(=O)[C@@H]2CCCN2)CSSC[C@@H](C(=O)N[C@H](C(=O)O)C(C)C)NC(=O)[C@H]([C@@H](C)CC)NC(=O)[C@H](C(C)C)NC(=O)[C@H](CCC(=O)O)NC(=O)[C@H](C)NC(=O)[C@H](C(C)C)NC(=O)[C@H](CC(=O)O)NC1=O [Peptide-14]
- IC50 [1, 5]: > 300 nM
- EC50 ([2]; Table 16): > 1000 nM
